Source: patent publication US20110206638A1, “COMPOSITIONS AND METHODS FOR REDUCING THE MUTATION RATE OF VIRUSES” (priority 2010, published 2011)

Tests used:
Con1 replicon cells = test: 8-OHG oxidative RNA damage in SgPC2 Con1 replicon cells (ELISA); assay type: cell-based, human; conditions: for 8-OH-G in Con1 replicon (SgPC2) cells, daily treatment for 2 weeks: 0.1% ethanol, 5 μM acetaldehyde; for 8-OH-G in Con1 replicon (SgPC2) cells, daily treatment for 2 weeks / fold increase in 8-OHG content over the control: 20 μM BSO; for 8-OH-G in SgPC2 cells within 2 days: 0.5% ethanol, BSO; for fold increase in 8-OHG content over the control: 48 hrs, 0.5% (v/v) ethanol, 250 μM NiCl2 daily
Description: Total RNA was isolated using Trizol (Invitrogen) and analyzed for 8-OH-guanosine (8-OH-G) by northwestern, as described (Shan X et al. (2003) J. Neurosci. 23:4913-4921). Briefly, RNA was size-fractionated by agarose gel electrophoresis, transferred to a nylon membrane, blocked with 1% BSA, incubated sequentially with monoclonal anti-8-OH-G/dG antibodies (QED Bioscience, Inc.) and then with goat anti-mouse HRP-conjugated secondary antibody (Santa Cruz Biotechnology), and signals were detected, using an ECL kit (Amersham). In addition, RNA was digested with nuclease P1 (Sigma, US Biological) and alkaline phosphatase (Promega) and analyzed for 8-OH-G content using RNA Damage Kit (Cell Biolabs, Inc.), following manufacturer's protocols.
Total RNA was isolated using Trizol (Invitrogen) and analyzed for 8-OHG by ELISA. Briefly, RNA was incubated with 10 U DNase I (GE Healthcare), 10 U nuclease P1 (Sigma or US Biological), and 10 U alkaline phosphatase (Promega) and analyzed for 8-OHG content with RNA Damage Kit (Cell Biolabs, Inc.) and 8-OHG standards, following manufacturer's protocols.

[1] = tested on: subgenomic HCV replicon of genotype 1b (Con1), NS5A region; test: NS5A sequencing of HCV RNA, mutation frequency in SgPC2 Con1 replicon cells (Example 1); assay type: cell-based, Hepatitis C virus; conditions: for dn/ds ratio: control 0.33; for Percentage of sites showing positive selection: control 2.36; for mutation frequency, nucleotide changes per site / amino acid changes per codon: SgPC2 Con1 replicon cells, once daily for 48 hrs, ethanol 0.5%; for mutation frequency, nucleotide changes per site: normalized by T7 baseline
Description: Huh7 cell clones (SgPC2 cells) supporting continuous replication of a subgenomic HCV replicon of genotype 1b (Con1 sequence) were used (Choi J. et al. (2004) Hepatology 39:81-89; Blight K J et al. (2000) Science 290:1972). The subgenomic replicons support HCV RNA replication but no virus is formed. The in vitro transcription, transfection of HCV RNA, and Huh7 human hepatoma cell culture were performed by methods known in the art and as previously described (Choi J. et al. (2004) Hepatology 39:81-89; Blight K J et al. (2000) Science 290:1972).
After various treatments, total RNAs were collected using Trizol (Invitrogen). Then, the NS5A region (nt. 4612 to 6013 of Con1 replicon) was reverse transcribed/amplified with AccuScript High Fidelity RT-PCR System (Stratagene). The cDNAs were cloned into pUC19 and sequenced at the Joint Genome Institute (Livermore, Calif.). Sequences were aligned against Con1(S11791) sequence, using BioEdit/MEGA 4.0 Molecular Evolutionary Genetics Analysis software.
To test whether ethanol can increase the mutation rate of HCV, SgPC2 Con1 replicon cells that support genotype 1b subgenomic HCV RNA replication (FIG. 2B) were incubated with ethanol (0.5%), BSO (amplifies the effects of endogenous ROS/RNS by decreasing the level of glutathione in the cell), H2O2 (100 μM), or acetaldehyde (10 μM) once daily for 48 hrs. Then, the RNAs were collected, and the NS5A region (nt. 4612 to 6013 of Con1 replicon) was reverse transcribed/amplified with AccuScript High Fidelity RT-PCR System (Stratagene). Then, the cDNAs were cloned into pUC19 and sequenced at the Joint Genome Institute (Livermore, Calif.). T7 HCV RNA transcript, initially used to transfect the Con1 cells, was also sequenced to assess the basal level of RNA heterogeneity, such as due to any heterogeneity of the DNA template prior to in vitro transcription as well as any errors generated during transcription and RT-PCR cloning. The experiments were focused on NS5A because of its moderate level of diversity and its role in viral replication as well as interferon resistance. Sequences were aligned against Con1(S1179I) sequence, using BioEdit/MEGA 4.0 Molecular Evolutionary Genetics Analysis software.

Huh7 cells = assay type: cell-based, human
Description: GO continuously generates H2O2 extracellularly, in the presence of glucose and can be used to mimic inflammation and continued oxidative stress seen during chronic hepatitis C. […] An in vitro-oxidized control Huh7 RNA (incubated with H2O2+cytochrome C) was used as a positive control (FIG. 3A). […] NiCl2 was used as a positive control genotoxin in FIGS. 3B and 3C.

Row | SMILES | 8-OH-G in Con1 replicon (SgPC2) cells, daily treatment for 2 weeks (Con1 replicon cells) | 8-OH-G in SgPC2 cells within 2 days (Con1 replicon cells) | fold increase in 8-OHG content over the control (Con1 replicon cells) [fold] | amino acid changes, fold higher than the control group ([1]; 48 hrs) [fold] | nucleotide changes, fold higher than the control group ([1]; 48 hrs) | dn/ds ratio ([1]; 48 hrs) | Percentage of sites showing positive selection ([1]; 48 hrs) [%] | mutation frequency, nucleotide changes per site [1] | amino acid changes per codon [1] | Ts/Tv ratio ([1]; 48 hrs, control approximately 2.7) | location of synonymous and nonsynonymous mutations in NS5A ([1]; SNAP plot against codons, 48 hrs) | 8-OHG in Huh7 cells (Huh7 cells)
1 | CCCCS(=N)(=O)CCC(N)C(=O)O [BSO, L-buthionine-S,R-sulfoximine] | significant increases | increased | 23.4±1.5 | ~12 | about 4 fold | 0.59 | 6.42 | 6.74×10^−4 nucleotide changes per site | 1.67×10^−3 amino acid changes per codon |  |  | 
2 | CCO [Ethanol, ethanol] | significant increases | increased | 34.9±1.2 | ~24 | ~8 fold | 0.76 | 5.14 | 1.33×10^−3 nucleotide changes per site | 3.05×10^−3 amino acid changes per codon | 5.7 | clustered in the C-terminal half of NS5A | elevated
